The results in this text go back to article PMC10327353 (Breast Cancer Research : BCR, 2023).

What is called TGI is the reduction of tumour growth relative to the control group.

Structures are written as SMILES.

The experiment deals with BT474C1-Luci Mono1 LM xenograft. The experiment is described as follows: LM (leptomeningeal metastasis) BT474C1-Luci Mono1 xenograft model. In kind it is in vivo, nude mice. On the procedure: The LM model was generated by implanting 10 µl of cell suspension containing 1 × 10^4 BT474C1-Luci Mono1 cells through cisterna magna into each mouse under anaesthesia following similar procedures as described in the literature (31). 17β- ESTRADIOL (90-day release 0.36 mg/pellet) were injected subcutaneously 24 hrs before cell inoculation. Under anaesthesia, mice were placed in the prone position with their neck draped over a cylinder. The head was immobilized with the thumb and mid-finger, with the index finger palpating the space between the occiput and C1. BT474c1-Luci Mono1 cell suspension at 10 µl containing 0.01 million cells were injected intracisternally. When the bioluminescent signal reached > 5 × 10^6 photon/s, animals were randomized for treatment. […]
In both BM and LM models, the day of randomization was defined as Day 0 and the treatment was started one day after randomization. The bioluminescence signals and body weight of the mice were measured once weekly. Relative bioluminescence intensity on a specific day was calculated by dividing the bioluminescence intensity on that day by the bioluminescence intensity on Day 0. The tumour growth inhibition (TGI) was calculated by formula: TGI (%) = (1-(relative bioluminescence intensity of treated group)/(relative bioluminescence intensity of control group)) x 100.Establishment of SC model

Regarding `COc1cc(O[C@H]2CCN(C)CC2(F)F)c2c(Nc3ccc(Oc4ccn5ncnc5c4)c(C)c3)ncnc2c1` [DZD1516], the TGI is, setting by setting: (100 mg/kg twice daily) 57%; (150 mg/kg twice daily) 81%.
